Test results as given in patent US4569801A, “Alkylsulfonamidophenylalkylamines” (priority 1984, dated 1986).
Read-outs that look alike come from different tables or passages of the source.

Key:
[1] = tested on: normal canine Purkinje fibers; test: Action potential duration of normal canine Purkinje fibers superfused in vitro (standard electrophysiological techniques); format: cell-based; conditions: Canis lupus familiaris, 10^-7 M, Ringer's solution at 35° C., driven at 1 Hz, read-out: Percent Increase in Action Potential Duration (at 95% of full repolarization)
Procedure: The antiarrhythmic activity of the compounds provided by the present invention was determined by the use of standard electrophysiological techniques to measure resting potential, action potential amplitude, duration, rate of rise and effective refractory periods of normal canine Purkinje fibers superfused in vitro with Ringer's solution at 35° C. and driven at a constant frequency of 1 Hz. Table 1 presents the data obtained for a number of compounds of the invention when evaluated in this test. The data presented is the percent increase in the action potential duration at 95% of full repolarization at 10^-7 M.

[2] = tested on: ventricular effective refractory period; test: Ventricular effective refractory period in halothane-anesthetized dogs; format: in vivo; conditions: for ED (+30 msec): Canis lupus familiaris; for I.D./I.V. (ratio of intraduodenal to intravenous dose): ratio of doses for +30 msec refractory period
Procedure: Certain of the compounds of the present invention were tested in halothane-anesthetized dogs in an effort to evaluate the effectiveness of the compounds in increasing the ventricular effective refractory period. Table 2 provides the quantity of specified compound in mg/kg necessary to increase the aforementioned refractory period by 30 msec. when administered either intravenously or intraduadenally. The compounds were tested against clofilium and N-ethyl-N-heptyl-4-nitrobenzenebutanamine, ethanedioic acid for comparative purposes.

[3] = clofilium and similar quaternary ammonium salts; background; cited from earlier work
[4] = intraduodenal, read-out: quantity of compound necessary to increase the ventricular effective refractory period by 30 msec., Intraduodenal
[5] = intravenous, read-out: quantity of compound necessary to increase the ventricular effective refractory period by 30 msec., Intravenous

SMILES | activation at 0.1 µM [1] [%] | ED (+30 msec) [2, 4] [mg/kg] | ED (+30 msec) [2, 5] [mg/kg] | I.D./I.V. (ratio of intraduodenal to intravenous dose) [2] | oral bioavailability [3]
CCCCCCCN(CC)CCCCc1ccc(NS(C)(=O)=O)cc1 [Example 1, N-[4-[4-(Ethylheptylamino)butyl]phenyl]methanesulfonamide ethanedioate] | 31 ± 6 | 2.2 | 0.29 | 8 | –
CCCCCCCN(CC)C(C)CCCc1ccc(NS(C)(=O)=O)cc1 (centres unmarked) [Example 2, N-[4-[4-(Ethylheptylamino)pentyl]phenyl]methanesulfonamide 2-hydroxy-1,2,3-propanetricarboxylate] | – | 8 | 0.27 | 30 | –
CCCCCCCN(CCCC)CCCCc1ccc(NS(C)(=O)=O)cc1 [Example 3, N-[4-[4-(Butylheptylamino)butyl]phenyl]methanesulfonamide ethanedioate] | 26 ± 4 | 2.4 | 0.1 | 24 | –
CCCCCCCN(CCCC)C(C)CCCc1ccc(NS(C)(=O)=O)cc1 (centres unmarked) [Example 4, N-[4-[4-(Butylheptylamino)pentyl]phenyl]methanesulfonamide] | – | 4 | 0.25 | 16 | –
CCCCCCCN(CC)CCCCc1cccc(NS(C)(=O)=O)c1 [Example 7, N-[3-[4-(Ethylheptylamino)butyl]phenyl]methanesulfonamide] | 20 ± 9 | – | – | – | –
CCCCCCCN(CC)CCCCc1ccc(NS(=O)(=O)CC)cc1 [Example 8, N-[4-[4-(Ethylheptylamino)butyl]phenyl]ethanesulfonamide] | 19 ± 4 | – | – | – | –
CCCCCCCN(CC)CCCCc1ccc([N+](=O)[O-])cc1.O=C(O)C(=O)O [N-ethyl-N-heptyl-4-nitrobenzenebutanamine, ethanedioic acid, reference compound] | – | 1.1 | 0.06 | 18 | –
CCCCCCC[N+](CC)(CC)CCCCc1ccc(Cl)cc1 [clofilium, 4-chloro-N,N-diethyl-N-heptylbenzenebutanaminium phosphate, reference compound] | – | 7 | 0.18 | 39 | marginal oral bioavailability
